# Source: patent US20250215029A1 (Recludix Pharma, Inc., priority 2022, published 2025)
# Read-outs that look alike come from different tables or passages of the source.
# Experiments:
# [1] = biological target: T1, pY705-STAT3 in PBMC (Homo sapiens, UniProt P40763); assay: MSD-pSTAT-PBMC Assay (pSTAT3, IL-6 stimulated); format: cell-based; conditions: PBMC, compound 3 hrs, then 10 ng/mL IL-6 for 10 min; Table 1114; read-out: pSTAT3
# T1 construct: Cryopreserved Peripheral Blood Mononuclear Cells (PBMC) are from AllCells; host or cells: cryopreserved PBMC
# T1 sequence (P40763 whole entry): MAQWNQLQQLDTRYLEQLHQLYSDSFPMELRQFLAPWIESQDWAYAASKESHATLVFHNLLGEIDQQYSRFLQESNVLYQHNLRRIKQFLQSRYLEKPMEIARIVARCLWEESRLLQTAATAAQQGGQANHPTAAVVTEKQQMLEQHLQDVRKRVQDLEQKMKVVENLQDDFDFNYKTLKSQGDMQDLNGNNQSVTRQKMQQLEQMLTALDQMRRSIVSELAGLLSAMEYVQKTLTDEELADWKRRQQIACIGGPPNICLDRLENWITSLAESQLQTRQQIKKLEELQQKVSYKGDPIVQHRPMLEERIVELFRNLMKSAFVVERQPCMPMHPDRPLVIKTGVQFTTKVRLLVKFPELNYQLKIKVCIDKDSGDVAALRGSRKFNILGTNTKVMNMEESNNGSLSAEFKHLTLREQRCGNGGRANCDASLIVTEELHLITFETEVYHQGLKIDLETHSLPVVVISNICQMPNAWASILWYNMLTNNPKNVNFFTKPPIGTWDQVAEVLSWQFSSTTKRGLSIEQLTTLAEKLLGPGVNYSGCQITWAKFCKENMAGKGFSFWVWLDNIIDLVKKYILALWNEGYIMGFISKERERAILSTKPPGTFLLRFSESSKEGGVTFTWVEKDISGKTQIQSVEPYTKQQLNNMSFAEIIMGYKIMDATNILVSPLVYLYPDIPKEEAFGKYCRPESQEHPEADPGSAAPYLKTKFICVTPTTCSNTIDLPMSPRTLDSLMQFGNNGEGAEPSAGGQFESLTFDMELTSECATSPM
# In short: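 Thawed human PBMC rested overnight in IMDM/10% FBS, then got compound for 3 hrs before a 10 min cytokine pulse: 1 ng/mL IL-4 for pSTAT6, 10 ng/mL IL-6 for pSTAT3. Lysates went to MSD sandwich capture on total STAT6 or STAT3 with phospho-specific detection. IC50 came from background-subtracted, DMSO-normalized signal.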
# [2] = biological target: T2, pY641-STAT6 in PBMC (Homo sapiens, UniProt P42226); assay: MSD-pSTAT-PBMC Assay (pSTAT6, IL-4 stimulated); format: cell-based; conditions: compound 3 hrs, then 1 ng/mL IL-4 for 10 min, Table 1114
# T2 construct: Cryopreserved Peripheral Blood Mononuclear Cells (PBMC) are from AllCells; host or cells: cryopreserved PBMC
# T2 sequence (P42226 1-847): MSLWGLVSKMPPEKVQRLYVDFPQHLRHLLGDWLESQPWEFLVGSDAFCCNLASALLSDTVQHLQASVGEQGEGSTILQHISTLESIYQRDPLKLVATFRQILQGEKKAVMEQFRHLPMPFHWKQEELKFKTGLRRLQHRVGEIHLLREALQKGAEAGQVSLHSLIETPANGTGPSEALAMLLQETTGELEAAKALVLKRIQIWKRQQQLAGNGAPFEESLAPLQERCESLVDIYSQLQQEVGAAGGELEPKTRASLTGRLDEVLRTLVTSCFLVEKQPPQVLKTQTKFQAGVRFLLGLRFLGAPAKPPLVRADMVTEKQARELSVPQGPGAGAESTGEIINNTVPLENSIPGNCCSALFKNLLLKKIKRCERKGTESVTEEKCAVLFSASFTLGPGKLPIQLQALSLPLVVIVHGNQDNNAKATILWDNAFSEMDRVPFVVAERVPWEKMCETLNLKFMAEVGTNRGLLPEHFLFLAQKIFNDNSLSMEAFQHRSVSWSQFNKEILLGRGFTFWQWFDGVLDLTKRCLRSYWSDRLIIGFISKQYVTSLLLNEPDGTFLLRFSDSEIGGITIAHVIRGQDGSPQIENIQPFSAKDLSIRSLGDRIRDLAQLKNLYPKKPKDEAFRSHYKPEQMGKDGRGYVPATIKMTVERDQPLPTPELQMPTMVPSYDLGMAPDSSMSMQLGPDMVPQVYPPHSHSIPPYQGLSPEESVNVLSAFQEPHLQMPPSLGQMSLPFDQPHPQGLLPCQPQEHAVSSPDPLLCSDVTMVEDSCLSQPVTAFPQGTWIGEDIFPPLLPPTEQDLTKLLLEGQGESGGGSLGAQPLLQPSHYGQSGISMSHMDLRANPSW
# In short: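 Cells are preincubated with compound for 3 hrs, then stimulated for 10 min, IL-4 at 1 ng/mL driving STAT6 phosphorylation and IL-6 at 10 ng/mL driving STAT3. Phospho-STAT in lysates is quantified by MSD immunoassay, and IC50 is fitted after subtracting unstimulated wells.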
Compound,IC50 [1],"IC50 ([2]; PBMC, read-out: pSTAT6)","IC50 ([2]; pSTAT6, PBMC)"
"CC(C)CC(=O)SCCOP(=O)(OCCSC(=O)CC(C)C)C(F)(F)c1ccc2sc(C(=O)N[C@H]3CCCCC4CC[C@@H](C(=O)N5C[C@H](c6ccccc6)[C@@H](C#N)C5)N4C3=O)cc2c1 (single isomer, unassigned) [Compound 163, S,S′-(((((2-(((3S,6S,10aS)-3-((3R,4S or 3S,4R)-3-cyano-4-phenylpyrrolidine-1-carbonyl)-5-oxodecahydro-pyrrolo[1,2-a]azocin-6-yl)carbamoyl)benzo[b]thiophen-5-yl)difluoromethyl)phosphoryl)bis(oxy))bis(ethane-2,1-diyl)) bis(3-methylbutane thioate)]",> 3000 nM,< 100 nM,
"CC(C)OC(=O)OCOP(=O)(OCOC(=O)OC(C)C)[C@H](F)c1ccc2sc(C(=O)N[C@H]3CCCC[C@H]4CC[C@@H](C(=O)N5C[C@H](c6cc[nH]c(=O)c6)[C@@H](C#N)C5)N4C3=O)cc2c1 (single isomer, unassigned) [Compound 164]",100 to 1000 nM,100 to 1000 nM,
"CC(C)CC(=O)SCCOP(=O)(OCOC(=O)OC(C)C)C(F)(F)c1ccc2sc(C(=O)N[C@H]3CCCC[C@H]4CC[C@@H](C(=O)N5C[C@H](c6ccccc6)[C@@H](C#N)C5)N4C3=O)cc2c1 (single isomer, unassigned) [Compound 166, S-(2-((((2-(((3S,6S,10aS)-3-((3R,4S or 3S,4R)-3-cyano-4-phenylpyrrolidine-1-carbonyl)-5-oxodecahydropyrrolo [1,2-a]azocin-6-yl)carbamoyl)benzo[b]thiophen-5-yl)difluoromethyl) (((isopropoxycarbonyl)oxy)methoxy)phosphoryl)oxy)ethyl)-3-methylbutane thioate]",100 to 1000 nM,< 100 nM,
"CC(C)CC(=O)SCCOP(=O)(OCCSC(=O)CC(C)C)C(F)(F)c1ccc2ccc(C(=O)N[C@H]3CCCCC[C@H]4[C@H](O)C[C@@H](C(=O)N5CC(C#N)C(c6cc[nH]c(=O)c6)C5)N4C3=O)cc2c1 (single isomer, unassigned) [Compound 167, S,S′-(((((7-(((1R,3S,6S,11aS)-3-((3S,4R or 3R,4S)-3-cyano-4-(2-oxo-1,2-dihydropyridin-4-yl)pyrrolidine-1-carbonyl)-1-hydroxy-5-oxodecahydropyrrolo [1,2-a]azocin-6-yl)carbamoyl)naphthalen-2-yl)difluoromethyl)phosphoryl)bis(oxy))bis(ethane-2,1-diyl)) bis(3-methylbutane thioate)]",> 3000 nM,100 to 1000 nM,
"CC(C)CC(=O)SCCOP(=O)(OCCSC(=O)CC(C)C)C(F)(F)c1ccc2ccc(C(=O)N[C@H]3CCCC[C@H]4CC[C@@H](C(=O)N5C[C@@H](C#N)[C@H](c6cc[nH]c(=O)c6)C5)N4C3=O)cc2c1 (single isomer, unassigned) [Compound 168, S,S′-(((((7-(((3S,6S,10aS)-3-((3S,4R or 3R,4S)-3-cyano-4-(2-oxo-1,2-dihydropyridin-4-yl)pyrrolidine-1-carbonyl)-5-oxodecahydropyrrolo [1,2-a]azocin-6-yl)carbamoyl)naphthalen-2-yl)difluoromethyl)phosphoryl)bis(oxy))bis(ethane-2,1-diyl)) bis(3-methylbutane thioate)]",100 to 1000 nM,< 100 nM,
"CC(C)(C)C(=O)OCOP(=O)(OCOC(=O)C(C)(C)C)[C@@H](F)c1ccc2sc(C(=O)N[C@H]3CCCC[C@H]4CC[C@@H](C(=O)N5C[C@@H](C#N)[C@H](c6ccccc6)C5)N4C3=O)cc2c1 (single isomer, unassigned) [Compound 183, ((((R)- or (S)-(2-(((3S,6S,10aS)-3-((3S,4R or 3R,4S)-3-cyano-4-phenylpyrrolidine-1-carbonyl)-5-oxodecahydropyrrolo[1,2-a]azocin-6-yl)carbamoyl)benzo[b]thiophen-5-yl)fluoromethyl)phosphoryl)bis(oxy))bis(methylene)bis(2,2-dimethylpropanoate))]",100 to 1000 nM,< 100 nM,
"CC(C)(C)C(=O)OCOP(=O)(OCOC(=O)C(C)(C)C)[C@@H](F)c1ccc2sc(C(=O)N[C@H]3CCCC[C@H]4CC[C@@H](C(=O)N5C[C@@H](C#N)[C@H](c6ccccc6)C5)N4C3=O)cc2c1 (single isomer, unassigned) [Compound 184, ((((S)- or (R)-(2-(((3S,6S, 10aS)-3-((3S,4R or 3R,4S)-3-cyano-4-phenyl-pyrrolidine-1-carbonyl)-5-oxodeca-hydropyrrolo [1,2-a]azocin-6-yl)carbamoyl)benzo[b]thiophen-5-yl)fluoromethyl)phosphoryl)bis(oxy)) bis(methylene) bis(2,2-dimethyl-propanoate)]",100 to 1000 nM,< 100 nM,
"CC(C)(C)C(=O)OCOP(=O)(OCOC(=O)C(C)(C)C)C(F)(F)c1ccc2sc(C(=O)N[C@H]3C[C@@H](O)CC[C@H]4CC[C@@H](C(=O)N5C[C@H](c6ccccc6)[C@@H](C#N)C5)N4C3=O)cc2c1 (single isomer, unassigned) [Compound 185, ((((2-(((3S,6S,8S, 10aR)-3-((3R,4S or 3S,4R)-3-cyano-4-phenyl-pyrrolidine-1-carbonyl)-8-hydroxy-5-oxodeca-hydropyrrolo [1,2-a]azocin-6-yl)carbamoyl)benzo[b]thiophen-5-yl)difluoro-methyl)phos-phoryl)bis(oxy)) bis(methylene) bis(2,2-dimethyl-propanoate)]",100 to 1000 nM,< 100 nM,
"CC(C)(C)C(=O)OCOP(=O)(OCOC(=O)C(C)(C)C)C(F)(F)c1ccc2ccc(C(=O)N[C@H]3CCCC[C@H]4CC[C@@H](C(=O)N5C[C@@H](C#N)[C@]6(C5)C(=O)Nc5ccccc56)N4C3=O)cc2c1 (single isomer, unassigned) [Compound 193]",< 100 nM,< 100 nM,
"CC(C)OC(=O)[C@H](C)NP(=O)(Cc1ccc2sc(C(=O)N[C@H]3CCCC[C@H]4CC[C@@H](C(=O)N5C[C@H](c6cc[nH]c(=O)c6)[C@@H](C#N)C5)N4C3=O)cc2c1)Oc1ccccc1 (single isomer, unassigned) [Compound 197, isopropyl (((2-(((3S,6S,10aS)-3-((3R,4S or 3S,4R)-3-cyano-4-(2-oxo-1,2-dihydro-pyridin-4-yl)pyrrolidine-1-carbonyl)-5-oxodecahydro-pyrrolo[1,2-a]azocin-6-yl)carbamoyl)benzo[b]thiophen-5-yl)methyl) (phenoxy)phosphoryl)-L-alaninate]",> 3000 nM,,> 3000 nM
"CC(C)OC(=O)[C@H](C)NP(=O)(Oc1ccccc1)C(F)c1ccc2sc(C(=O)N[C@H]3CCCC[C@H]4CC[C@@H](C(=O)N5C[C@H](c6cc[nH]c(=O)c6)[C@@H](C#N)C5)N4C3=O)cc2c1 (single isomer, unassigned) [Compound 198, isopropyl (((2-(((3S,6S,10aS)-3-((3R,4S or 3S,4R)-3-cyano-4-(2-oxo-1,2-dihydropyridin-4-yl)pyrrolidine-1-carbonyl)-5-oxodecahydro-pyrrolo[1,2-a]azocin-6-yl)carbamoyl)benzo[b]thiophen-5-yl)fluoro-methyl) (phenoxy)phosphoryl)-L-alaninate]",> 3000 nM,,> 3000 nM
